Measurements published in US20240246979A1, “cGAS INHIBITORS” (Eli Lilly and Company, priority 2022, published 2024).

Tests used:
cGAS [1] = target: T1, cGAS (Homo sapiens, UniProt Q8N884); assay: Cellular assay to measure cGAS activity (IFNb AlphaLISA in THP1 cells stimulated by RDG-Adenovirus-GFP); type: cell-based; set-up: host or cells: THP1 cells differentiated with PMA and stimulated with RDG-Adenovirus-GFP; conditions: PMA-differentiated THP1 cells, RDG-Adenovirus-GFP at 1000 MOI; inhibition of IFNb production as marker for cGAS activity
T1 sequence (Q8N884 whole entry): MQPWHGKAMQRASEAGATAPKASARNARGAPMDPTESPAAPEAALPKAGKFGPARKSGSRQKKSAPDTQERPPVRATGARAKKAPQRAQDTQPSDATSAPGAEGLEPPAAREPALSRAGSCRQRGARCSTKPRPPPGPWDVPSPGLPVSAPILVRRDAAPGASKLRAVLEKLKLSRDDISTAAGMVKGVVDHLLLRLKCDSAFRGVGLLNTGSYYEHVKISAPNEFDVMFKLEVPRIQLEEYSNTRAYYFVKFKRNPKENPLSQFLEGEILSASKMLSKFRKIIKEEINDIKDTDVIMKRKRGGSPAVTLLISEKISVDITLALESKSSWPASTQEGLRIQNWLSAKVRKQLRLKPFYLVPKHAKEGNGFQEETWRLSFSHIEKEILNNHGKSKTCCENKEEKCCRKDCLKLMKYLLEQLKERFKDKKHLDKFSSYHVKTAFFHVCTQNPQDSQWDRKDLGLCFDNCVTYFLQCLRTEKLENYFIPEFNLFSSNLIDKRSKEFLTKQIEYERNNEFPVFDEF
Description: Cellular assay to measure cGAS activity: Use THP1 cell line from ATCC to determine inhibition of cGAS activity by test compounds in human cells. Plate cells on 96-well plates at 0.2×10^6/well and differentiate with phorbol myristate acetate (PMA) at 37° C./5% CO2. After 24 hours, replace PMA containing media with media lacking PMA and further incubate overnight. Stimulate cells were then by RDG-Adenovirus-GFP (Vector Biolabs #1768) at 1000 MOI for 4 hours prior to the addition of test compounds. After overnight incubation, transfer 10 μL of the media from each well to a new plate for IFNb analysis as a marker for cGAS activity. Measure quantification of IFNb with an IFNb AlphaLISA Detection kit (Perkin Elmer AL3133F) by mixing the acceptor beads with the cell supernatant followed by the addition of the biotinylated antibody and donor beads. Measure the relative fluorescence signal produced from the interaction of the donor and acceptor beads by a PHERAStar AlphaLISA protocol and evaluate the inhibitory effect of a compound by plotting specific inhibition of IFNb production against log concentration of the test compound. Calculate IC50 values using a 4-parameter non-linear logistic equation (y=(S0+((SInf−S0)/(1+((qAC50/x)^nHill))))).

cGAS [2] = target: T1, cGAS; assay: In vitro inhibition assay of cGAS activity (cGAMP production, RapidFire mass spectrometry); type: biochemical; set-up: Insert cDNA encoding full-length of human cGAS; His6; made in house; host or cells: E. coli BL21(DE3); conditions: 10 nM recombinant human cGAS, 60 nM 75-bp dsDNA, 50 μM ATP, 50 μM GTP, 3 hrs
Description: Expression and Purification of Recombinant cGAS Protein: Insert cDNA encoding full-length of human cGAS into a modified bacterial expression vector containing an in-frame His6-tag. Induce the E. coli strain BL21(DE3) harboring the plasmid with 1 mM IPTG (Isopropyl β-D-1-thiogalactopyranoside) at 18° C. overnight. Purify the His6-tagged cGAS protein over HISpur Ni-NTA resin in the presence of benzonase and RNase followed by Superdex 200 size exclusion chromatography with storage buffer (50 mM Tris-HCl pH 7.5, 300 mM NaCl, 1 mM DTT, 10% glycerol).
In vitro inhibition assay of cGAS activity: Add a 5 μL mixture containing 10 mM Tris-Cl pH 7.5, 50 mM NaCl, 5 mM MgCl2, 1 mM DTT, 0.01% Triton X-100, 60 nM 75-bp dsDNA, 50 μM ATP, 50 μM GTP, 10 nM of recombinant human cGAS, and serial dilutions of a test compound in DMSO to a 384-well plate and incubate at ambient temperature for 3 hrs. Quench the reaction by the addition of 100 μL of stop solution containing 0.1% formic acid and 0.1 μM internal standard (3′3′-difluoro cGAMP). Measure the amount of cGAMP produced by RapidFire 365 mass spectrometry and evaluate inhibitory effect of a compound by plotting percent specific inhibition of cGAMP production against log concentration of the test compound. Calculate IC50 values using a 4-parameter non-linear logistic equation (y=(S0+((Sinf−S0)/(1+((qAC50/x)^nHill))))).

Row | Structure (SMILES) | IC50 (cGAS [1]) | IC50 (cGAS [2])
1 | CCC1CNC(=O)Cc2c1[nH]c1c(Cl)c(Cl)cc(NCCO)c21 (stereo not shown) [Example 163, 7,8-Dichloro-5-ethyl-10-((2-hydroxyethyl)amino)-3,4,5,6-tetrahydroazepino[4,5-b]indol-2(1H)-one] | 1620 nM | 23.1 nM
2 | C[C@H](O)COc1cc(Cl)c(Cl)c2[nH]c3c(c12)[C@H](C)C(=O)NCC3 (single isomer, unassigned) [Example 85] | 7260 nM | 2770 nM
3 | CC(O)COc1cc(Cl)c(Cl)c2[nH]c3c(c12)CC(=O)NCC3 (stereo not shown) [Example 87, 7,8-Dichloro-10-(2-hydroxypropoxy)-3,4,5,6-tetrahydroazepino[4,5-b]indol-2(1H)-one] | 5970 nM | 36 nM
4 | Cn1c2c(c3c(OCC#N)cc(Cl)c(Cl)c31)CC(=O)NCC2 [Example 21, 2-((7,8-Dichloro-6-methyl-2-oxo-1,2,3,4,5,6-hexahydroazepino[4,5-b]indol-10-yl)oxy)acetonitrile] |  | 141 nM
5 | C[C@H]1C(=O)NCCc2c1c1c(NC(=O)CO)cc(Cl)c(Cl)c1n2C(F)F (single isomer, unassigned) [Example 145, (R)—N-(7,8-Dichloro-6-(difluoromethyl)-1-methyl-2-oxo-1,2,3,4,5,6-hexahydroazepino[4,5-b]indol-10-yl)-2-hydroxyacetamide or (S)—N-(7,8-Dichloro-6-(difluoromethyl)-1-methyl-2-oxo-1,2,3,4,5,6-hexahydroazepino[4,5-b]indol-10-yl)-2-hydroxyacetamide] | 287 nM | 12.3 nM
6 | COCC(=O)Nc1cc(Cl)c(Cl)c2[nH]c3c(c12)C(C)C(=O)NCC3 (stereo not shown) [Example 39, N-(7,8-Dichloro-1-methyl-2-oxo-1,2,3,4,5,6-hexahydroazepino[4,5-b]indol-10-yl)-2-methoxyacetamide] | 892 nM | 54.4 nM
7 | Cn1ncc(-c2cc(Cl)c(Cl)c3[nH]c4c(c23)CC(=O)NC[C@H]4CC(C)(C)O)n1 (single isomer, unassigned) [Example 104] | 1570 nM | 42.2 nM
8 | COCC[C@@H]1CNC(=O)[C@@H](C)c2c1[nH]c1c(Cl)c(Cl)cc(NCCO)c21 (racemic) [Example 169, trans-7,8-Dichloro-10-((2-hydroxyethyl)amino)-5-(2-methoxyethyl)-1-methyl-3,4,5,6-tetrahydroazepino[4,5-b]indol-2(1H)-one] | 1130 nM | 26.2 nM
9 | Cn1ncc(-c2cc(Cl)c(Cl)c3[nH]c4c(c23)CC(=O)NC[C@H]4CC(C)(F)F)n1 (single isomer, unassigned) [Example 136] | 1570 nM | 16 nM
10 | C[C@H]1C(=O)NCCc2[nH]c3c(Cl)c(Cl)cc(NCCCO)c3c21 (single isomer, unassigned) [Example 53] | 471 nM | 17.3 nM
11 | C[C@H](O)C(=O)Nc1cc(Cl)c(Cl)c2c1c1c(n2C)CCNC(=O)[C@H]1C (single isomer, unassigned) [Example 95] | ≥ 10000 nM | 7580 nM
12 | CCNc1cc(Cl)c(Cl)c2[nH]c3c(c12)CC(=O)NCC3 [Example 30, 7,8-Dichloro-10-(ethylamino)-3,4,5,6-tetrahydroazepino[4,5-b]indol-2(1H)-one] | 3730 nM | 119 nM
13 | C[C@H](O)C(=O)Nc1cc(Cl)c(Cl)c2[nH]c3c(c12)[C@@H](C)C(=O)NCC3(C)C (single isomer, unassigned) [Example 181, (S)—N—((R)-7,8-Dichloro-1,5,5-trimethyl-2-oxo-1,2,3,4,5,6-hexahydroazepino[4,5-b]indol-10-yl)-2-hydroxypropanamide or (S)—N—((S)-7,8-dichloro-1,5,5-trimethyl-2-oxo-1,2,3,4,5,6-hexahydroazepino[4,5-b]indol-10-yl)-2-hydroxypropanamide] | > 10000 nM | > 39800 nM
14 | C[C@@H]1CNC(=O)Cc2c1[nH]c1c(Cl)c(Cl)cc(-c3cnn(C)n3)c21 (single isomer, unassigned) [Example 146] | 300 nM | 27.2 nM
15 | C[C@@H]1CNC(=O)[C@@H](C)c2c1[nH]c1c(Cl)c(Cl)cc(NC(=O)CO)c21 (single isomer, unassigned) [Example 160, N-((1S,5R)-7,8-Dichloro-1,5-dimethyl-2-oxo-1,2,3,4,5,6-hexahydroazepino[4,5-b]indol-10-yl)-2-hydroxyacetamide or N-((1R,5S)-7,8-Dichloro-1,5-dimethyl-2-oxo-1,2,3,4,5,6-hexahydroazepino[4,5-b]indol-10-yl)-2-hydroxyacetamide] | 256 nM | 13 nM
16 | C[C@@H](O)CNc1cc(Cl)c(Cl)c2c1c1c(n2C)CCNC(=O)[C@@H]1C (single isomer, unassigned) [Example 99] | > 10000 nM | 1640 nM
17 | C[C@@H]1CNC(=O)Cc2c1[nH]c1c(Cl)c(Cl)cc(OCC#N)c21 (single isomer, unassigned) [Example 149] | 3080 nM | 1560 nM
18 | CCCNc1cc(Cl)c(Cl)c2[nH]c3c(c12)C(C)C(=O)NCC3 (stereo not shown) [Example 45, 7,8-Dichloro-1-methyl-10-(propylamino)-3,4,5,6-tetrahydroazepino[4,5-b]indol-2(1H)-one] | 2230 nM | 46.6 nM
19 | C[C@@H]1C(=O)NC[C@H](C)c2[nH]c3c(Cl)c(Cl)cc(CC#N)c3c21 (single isomer, unassigned) [Example 151] | 1770 nM | 19.7 nM
20 | COCC[C@H]1CNC(=O)[C@@H](C)c2c1[nH]c1c(Cl)c(Cl)cc(NCCO)c21 (single isomer, unassigned) [Example 173] | 1610 nM | 14.7 nM
21 | Cn1ncc(-c2cc(Cl)c(Cl)c3[nH]c4c(c23)CC(=O)NCC4)n1 [Example 2, 7,8-Dichloro-10-(2-methyl-2H-1,2,3-triazol-4-yl)-3,4,5,6-tetrahydroazepino[4,5-b]indol-2(1H)-one] | 819 nM | 20.5 nM
22 | C[C@@H]1CNC(=O)Cc2c1[nH]c1c(Cl)c(Cl)cc(OCC#N)c21 (single isomer, unassigned) [Example 148] | 1390 nM | 41.4 nM
23 | Nc1noc(-c2cc(Cl)c(Cl)c3[nH]c4c(c23)CC(=O)NCC4)n1 [Example 33, 10-(3-Amino-1,2,4-oxadiazol-5-yl)-7,8-dichloro-3,4,5,6-tetrahydroazepino[4,5-b]indol-2(1H)-one] | 1200 nM | 20.4 nM
24 | CC(F)(F)C[C@@H]1CNC(=O)Cc2c1[nH]c1c(Cl)c(Cl)cc(CC#N)c21 (single isomer, unassigned) [Example 138] | 431 nM | 8 nM
25 | CN(C)C(=O)CC1CNC(=O)Cc2c1[nH]c1c(Cl)c(Cl)cc(-c3cnn(C)n3)c21 (stereo not shown) [Example 7, 2-(7,8-Dichloro-10-(2-methyl-2H-1,2,3-triazol-4-yl)-2-oxo-1,2,3,4,5,6-hexahydroazepino[4,5-b]indol-5-yl)-N,N-dimethylacetamide] | 661 nM | 28.1 nM
26 | C[C@H](O)C(=O)Nc1cc(Cl)c(Cl)c2[nH]c3c(c12)[C@@H](C)C(=O)NCC3(C)C (single isomer, unassigned) [Example 182, (S)—N—((R)-7,8-Dichloro-1,5,5-trimethyl-2-oxo-1,2,3,4,5,6-hexahydroazepino[4,5-b]indol-10-yl)-2-hydroxypropanamide or (S)—N—((S)-7,8-dichloro-1,5,5-trimethyl-2-oxo-1,2,3,4,5,6-hexahydroazepino[4,5-b]indol-10-yl)-2-hydroxypropanamide] | 1180 nM | 45.6 nM
27 | Cn1ccc(-c2cc(Cl)c(Cl)c3[nH]c4c(c23)CC(=O)NCC4)n1 [Example 3, 7,8-Dichloro-10-(1-methyl-1H-pyrazol-3-yl)-3,4,5,6-tetrahydroazepino[4,5-b]indol-2(1H)-one] |  | 111 nM
